Measurements as given in patent US11000033B2, “Ketone or oxime compound, and herbicide” (NISSAN CHEMICAL CORPORATION, priority 2014, dated 2021).

Key:
Type in all cases: in vivo
rice = assay: Test Example 4: effect on crop by soil treatment (symbol b); conditions: application herbicide amount 320 g/ha
Method in brief: (§1)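 Diluvial soil (sterilized) in boxes; seeds placed spot-wise alongside weed species; ~1.5 cm covering soil. Greenhouse, 25–30° C.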

[1] = tested on: Echinochloa crus-galli var. crus-galli; assay: Test Example 5: herbicidal effect by foliage application, plastic box (symbol H); conditions: 320 g/ha, 3 weeks after application
Method in brief: (§2)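 Post-emergence spray; diluvial soil (sterilized), ~1.5 cm seed cover; greenhouse 25–30° C; 14-day-old plants; water-diluted emulsion at predetermined dose; visual score at 3 wk post-treatment.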

Apera spica-venti [2] = assay: Test Example 4: herbicidal effect by soil treatment (symbol L); conditions: application herbicide amount 320 g/ha
Method in brief: (§3)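 Seeds were sown in sterilized diluvial soil, covered with about 1.5 cm of soil, and the soil surface was sprayed with a water-diluted emulsion of the compound at a predetermined rate. Plants grew in a greenhouse at 25° C. to 30° C.; effects were scored visually 3 weeks after application.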

Veronica persica [3] = assay: Test Example 5: herbicidal effect by foliage application, plastic box (symbol R); conditions: 320 g/ha, 3 weeks after application
Method in brief: as §2

Setaria viridis [4] = assay: Test Example 4: herbicidal effect by soil treatment (symbol G); conditions: application herbicide amount 320 g/ha
Method in brief: as §3

Setaria viridis [5] = assay: Test Example 5: herbicidal effect by foliage application, plastic box (symbol G); conditions: 320 g/ha, 3 weeks after application
Method in brief: as §2

Chenopodium album = assay: Test Example 5: herbicidal effect by foliage application, plastic box (symbol O); conditions: 320 g/ha, 3 weeks after application
Method in brief: as §2

Digitaria ciliaris = assay: Test Example 5: herbicidal effect by foliage application, plastic box (symbol F); conditions: 320 g/ha, 3 weeks after application
Method in brief: as §2

Avena fatua [6] = assay: Test Example 5: herbicidal effect by foliage application, plastic box (symbol I); conditions: 320 g/ha, 3 weeks after application
Method in brief: as §2

soybean = assay: Test Example 5: effect on crop by foliage application, plastic box (symbol d); conditions: 320 g/ha, 3 weeks after application
Method in brief: (§4)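 In a plastic box 7 cm deep filled with sterilized diluvial soil, seeds of crops and weeds such as Digitaria ciliaris, Avena fatua and Amaranthus retroflexus are sown in spots and covered with about 1.5 cm of soil before greenhouse growth at 25–30° C.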

Scirpus juncoides = assay: Test Example 1: herbicidal activity, application before weed generation in submerged conditions (symbol B); conditions: application herbicide amount 320 g/ha
Method in brief: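 In a flooded pot test with alluvial soil, the emulsion-formulated compound was diluted with water to a predetermined amount and applied to the floodwater immediately on the sowing day. Pots were held in a greenhouse at 25–30 °C for 3 weeks before each weed was rated.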

Avena fatua [7] = assay: Test Example 4: herbicidal effect by soil treatment (symbol I); conditions: application herbicide amount 320 g/ha
Method in brief: as §3

Apera spica-venti [8] = assay: Test Example 5: herbicidal effect by foliage application, plastic box (symbol L); conditions: 320 g/ha, 3 weeks after application
Method in brief: as §2

rapeseed [9] = assay: Test Example 4: effect on crop by soil treatment (symbol g); conditions: application herbicide amount 320 g/ha
Method in brief: as §1

rapeseed [10] = assay: Test Example 5: effect on crop by foliage application, plastic box (symbol g); conditions: 320 g/ha, 3 weeks after application
Method in brief: as §4

Veronica persica [11] = assay: Test Example 4: herbicidal effect by soil treatment (symbol R); conditions: application herbicide amount 320 g/ha
Method in brief: as §3

Abutilon theophrasti = assay: Test Example 5: herbicidal effect by foliage application, plastic box (symbol M); conditions: 320 g/ha, 3 weeks after application
Method in brief: as §2

Monochoria vaginalis = assay: Test Example 2: herbicidal activity, application during weed generation in submerged conditions (symbol C); conditions: Table 23; application herbicide amount 320 g/ha; grade 0-5 by criteria of Test Example 1
Method in brief: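 Submerged alluvial soil (4 cm) sown with mixed seed; greenhouse 25–30° C. 1–2 leaf: diluted emulsion onto water surface, preset dose. Visual score, 3 wk.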

Compound	b (directly sowed rice plant) effect on crop grade (rice)	H: Echinochloa crus-galli var. crus-galli, herbicidal effect grade [1]	L (Apera spica-venti) herbicidal effect grade (Apera spica-venti [2])	R: Veronica persica, herbicidal effect grade (Veronica persica [3])	G (Setaria viridis) herbicidal effect grade (Setaria viridis [4])	G: Setaria viridis, herbicidal effect grade (Setaria viridis [5])	O: Chenopodium album, herbicidal effect grade (Chenopodium album)	F: Digitaria ciliaris, herbicidal effect grade (Digitaria ciliaris)	I: Avena fatua, herbicidal effect grade (Avena fatua [6])	d: soybean, effect on crop grade (soybean)	Herbicidal effect grade, B: Scirpus juncoides (Scirpus juncoides)	I (Avena fatua) herbicidal effect grade (Avena fatua [7])	L: Apera spica-venti, herbicidal effect grade (Apera spica-venti [8])	g (rapeseed) effect on crop grade (rapeseed [9])	g: rapeseed, effect on crop grade (rapeseed [10])	R (Veronica persica) herbicidal effect grade (Veronica persica [11])	M: Abutilon theophrasti, herbicidal effect grade (Abutilon theophrasti)	Herbicidal effect grade, C: Monochoria vaginalis (Monochoria vaginalis)
CCC(C)C(CC1CC(O)=C(c2c(C)cc(C)cc2C)C1=O)=NOC (stereo not drawn) [1-066]	5 (Herbicidal ratio of 90% or more (almost completely withered))	5 (Herbicidal ratio of 90% or more (almost completely withered))	5 (Herbicidal ratio of 90% or more (almost completely withered))	3 (Herbicidal ratio of 40% or higher and lower than 70%)	4 (Herbicidal ratio of 70% or higher and lower than 90%)	5 (Herbicidal ratio of 90% or more (almost completely withered))	1 (Herbicidal ratio of 5% or higher and lower than 20%)	4 (Herbicidal ratio of 70% or higher and lower than 90%)	4 (Herbicidal ratio of 70% or higher and lower than 90%)	0 (Herbicidal ratio of 5% or lower (almost no effect))	0 (Herbicidal ratio of 5% or lower (almost no effect))	0 (Herbicidal ratio of 5% or lower (almost no effect))	4 (Herbicidal ratio of 70% or higher and lower than 90%)	0 (Herbicidal ratio of 5% or lower (almost no effect))	3 (Herbicidal ratio of 40% or higher and lower than 70%)	0 (Herbicidal ratio of 5% or lower (almost no effect))	1 (Herbicidal ratio of 5% or higher and lower than 20%)	0 (Herbicidal ratio of 5% or lower (almost no effect))
CON=C(C)CC1CC(OC(=O)COc2ccccc2OC)=C(c2c(C)cc(C)cc2C)C1=O (stereo not drawn) [1-067]	5 (Herbicidal ratio of 90% or more (almost completely withered))	5 (Herbicidal ratio of 90% or more (almost completely withered))	5 (Herbicidal ratio of 90% or more (almost completely withered))	3 (Herbicidal ratio of 40% or higher and lower than 70%)	5 (Herbicidal ratio of 90% or more (almost completely withered))	5 (Herbicidal ratio of 90% or more (almost completely withered))	2 (Herbicidal ratio of 20% or higher and lower than 40%)	5 (Herbicidal ratio of 90% or more (almost completely withered))	5 (Herbicidal ratio of 90% or more (almost completely withered))	4 (Herbicidal ratio of 70% or higher and lower than 90%)	5 (Herbicidal ratio of 90% or more (almost completely withered))	3 (Herbicidal ratio of 40% or higher and lower than 70%)	5 (Herbicidal ratio of 90% or more (almost completely withered))	4 (Herbicidal ratio of 70% or higher and lower than 90%)	4 (Herbicidal ratio of 70% or higher and lower than 90%)	0 (Herbicidal ratio of 5% or lower (almost no effect))	5 (Herbicidal ratio of 90% or more (almost completely withered))	2 (Herbicidal ratio of 20% or higher and lower than 40%)
CON=C(C)CC1CC(OC(=O)COc2cccc(OC)c2)=C(c2c(C)cc(C)cc2C)C1=O (stereo not drawn) [1-068]	5 (Herbicidal ratio of 90% or more (almost completely withered))	5 (Herbicidal ratio of 90% or more (almost completely withered))	5 (Herbicidal ratio of 90% or more (almost completely withered))	3 (Herbicidal ratio of 40% or higher and lower than 70%)	5 (Herbicidal ratio of 90% or more (almost completely withered))	5 (Herbicidal ratio of 90% or more (almost completely withered))	1 (Herbicidal ratio of 5% or higher and lower than 20%)	5 (Herbicidal ratio of 90% or more (almost completely withered))	5 (Herbicidal ratio of 90% or more (almost completely withered))	4 (Herbicidal ratio of 70% or higher and lower than 90%)	4 (Herbicidal ratio of 70% or higher and lower than 90%)	3 (Herbicidal ratio of 40% or higher and lower than 70%)	5 (Herbicidal ratio of 90% or more (almost completely withered))	4 (Herbicidal ratio of 70% or higher and lower than 90%)	4 (Herbicidal ratio of 70% or higher and lower than 90%)	0 (Herbicidal ratio of 5% or lower (almost no effect))	5 (Herbicidal ratio of 90% or more (almost completely withered))	3 (Herbicidal ratio of 40% or higher and lower than 70%)
CON=C(C)CC1CC(OC(=O)COc2ccc(OC)cc2)=C(c2c(C)cc(C)cc2C)C1=O (stereo not drawn) [1-069]	5 (Herbicidal ratio of 90% or more (almost completely withered))	5 (Herbicidal ratio of 90% or more (almost completely withered))	5 (Herbicidal ratio of 90% or more (almost completely withered))	3 (Herbicidal ratio of 40% or higher and lower than 70%)	4 (Herbicidal ratio of 70% or higher and lower than 90%)	5 (Herbicidal ratio of 90% or more (almost completely withered))	2 (Herbicidal ratio of 20% or higher and lower than 40%)	5 (Herbicidal ratio of 90% or more (almost completely withered))	5 (Herbicidal ratio of 90% or more (almost completely withered))	4 (Herbicidal ratio of 70% or higher and lower than 90%)	4 (Herbicidal ratio of 70% or higher and lower than 90%)	3 (Herbicidal ratio of 40% or higher and lower than 70%)	5 (Herbicidal ratio of 90% or more (almost completely withered))	4 (Herbicidal ratio of 70% or higher and lower than 90%)	4 (Herbicidal ratio of 70% or higher and lower than 90%)	0 (Herbicidal ratio of 5% or lower (almost no effect))	5 (Herbicidal ratio of 90% or more (almost completely withered))	3 (Herbicidal ratio of 40% or higher and lower than 70%)
